# Test results from paper PMC11725581, “Developing novel Lin28 inhibitors by computer aided drug design” (Cell Death Discovery, 2025).
# Tested on: Lin28b, let-7 target, CSC and NE biomarker genes in DuNE cells
# Experiment: Gene expression (real-time qPCR, immunoblotting) in DuNE cells
# Assay type: cell-based
# Conditions: 72 h
# Protocol: Fig. 4 Ln268 strongly blocks cancer cell stemness of t-NEPC cells. A, B DuNE cells were treated with C1632, Ln15, and Ln268 for 72 h. Selected Let-7 targeted genes, stem cell biomarkers and NE biomarkers were measured by real-time qPCR (A). Lin28b and its downstream HMGA2 protein levels were measured by immunoblotting (B). C DuNE spheroids were treated with 0–100 μM of C1632, Ln15, and Ln268 for 0–6 days. Spheroid sizes were measured and plotted. D DuNE cells were used to perform colony formation assays in the presence of C1632, Ln15 and Ln268 for 14 days. The number of colonies formed in each treatment counted and plotted. E DuNE cells under 3D culture conditions were treated with C1632, Ln15, and Ln268 at the indicated concentrations. Cell growth rates were measured by Incucyte. F DuNE cells were treated with 0–20 μM Ln268 for 144 h. FACS measured cell populations at each stage of cell cycling. Three independent biological replicates were performed for all the assays. All results are presented as the mean ± SD.
# Total RNA was extracted by TRIZOL reagent (Invitrogen), treated with deoxyribonuclease and reversely transcribed by random hexamers and superscript II (Invitrogen). Real-time qPCR was performed on the ABI PRISM 7900 HT system (Applied Biosystems) using the FastStart Universal SYBR Green Master mix (Roche) following standard protocol as we reported. […]
compound,measurement,setting,value
O=c1[nH]c(Nc2ccc(F)cc2O)cs1 [Ln268],effect on Lin28b mRNA and protein levels,,potently inhibited Lin28b at both mRNA and protein levels
same,"inhibition of Oct4, Nanog and ID4 expression relative to C1632",qPCR,stronger inhibitory effects than C1632
